As a reminder, the Ki is a measure of affinity in units of concentration, obtained from inhibition or displacement. Read a low Ki as tighter binding.

In the test the target is T1, human cloned 5-HT6 receptors (Homo sapiens, UniProt P50406).
T1 construct: expressed in transfected cells; host or cells: HeLa cells
T1 sequence (P50406 whole entry): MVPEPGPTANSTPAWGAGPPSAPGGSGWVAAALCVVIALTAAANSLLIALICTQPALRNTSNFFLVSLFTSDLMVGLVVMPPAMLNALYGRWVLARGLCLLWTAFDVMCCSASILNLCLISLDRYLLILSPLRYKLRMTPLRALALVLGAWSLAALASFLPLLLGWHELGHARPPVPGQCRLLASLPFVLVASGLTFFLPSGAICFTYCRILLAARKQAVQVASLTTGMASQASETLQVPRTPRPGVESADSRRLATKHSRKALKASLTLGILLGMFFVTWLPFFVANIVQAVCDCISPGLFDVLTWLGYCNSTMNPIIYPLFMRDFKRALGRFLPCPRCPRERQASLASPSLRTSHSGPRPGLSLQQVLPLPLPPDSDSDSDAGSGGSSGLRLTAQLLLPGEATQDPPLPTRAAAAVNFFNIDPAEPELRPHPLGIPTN
Nature of the test: 5-HT6 binding affinity ([3H]-LSD displacement, membranes of Hela cells expressing human cloned 5-HT6 receptors). The following applies: [3H]-LSD 3.0 nM, Hela cell membranes, 120 min at room temperature. Here is the method: The affinity of test compounds for the serotonin 5-HT6 receptor is evaluated in the following manner. Cultured Hela cells expressing human cloned 5-HT6 receptors are harvested and centrifuged at low speed (1,000×g) for 10.0 min to remove the culture media. The harvested cells are suspended in half volume of fresh physiological phosphate buffered saline solution and recentrifuged at the same speed. This operation is repeated. The collected cells are then homogenized in ten volumes of 50 mM Tris.HCl (pH 7.4) and 0.5 mM EDTA. The homogenate is centrifuged at 40,000×g for 30.0 min and the precipitate is collected. The obtained pellet is resuspended in 10 volumes of Tris.HCl buffer and recentrifuged at the same speed. The final pellet is suspended in a small volume of Tris.HCl buffer and the tissue protein content is determined in aliquots of 10-25 μl volumes. Bovine Serum Albumin is used as the standard in the protein determination according to the method described in Lowry et al., J. Biol. Chem., 193:265 (1951). The volume of the suspended cell membranes is adjusted to give a tissue protein concentration of 1.0 mg/ml of suspension. The prepared membrane suspension (10 times concentrated) is aliquoted in 1.0 ml volumes and stored at −70° C. until used in subsequent binding experiments.
Binding experiments are performed in a 96 well microtiter plate format, in a total volume of 200 μl. […] The test compounds are added in 20.0 μl volume.
The reaction is allowed to proceed in the dark for 120 min at room temperature, at which time, the bound ligand-receptor complex is filtered off on a 96 well unifilter with a Packard Filtermate® 196 Harvester. The bound complex caught on the filter disk is allowed to air dry and the radioactivity is measured in a Packard TopCount® equipped with six photomultiplier detectors, after the addition of 40.0 μl Microscint®-20 scintillant to each shallow well. The unifilter plate is heat-sealed and counted in a PackardTopCount® with a tritium efficiency of 31.0%.
Binding in the presence of varying concentrations of test compound is expressed as a percentage of specific binding in the absence of test compound. The results are plotted as log % bound versus log concentration of test compound. […] A linear regression line of data points is plotted, from which the IC50 value is determined and the Ki value is determined based upon the following equation: Ki=IC50/(1+L/KD) where L is the concentration of the radioactive ligand used and KD is the dissociation constant of the ligand for the receptor, both expressed in nM.
Take `NCCn1c(=O)n(S(=O)(=O)c2cccc(Cl)c2)c2cccnc21` [Example 16, 3-(2-aminoethyl)-1-[(3-chlorophenyl)sulfonyl]-1,3-dihydro-2H-imidazo[4,5-b]pyridin-2-one]: the inhibition constant (Ki) is 16 nM.
In turn, `CN(C)CCn1c(=O)n(S(=O)(=O)c2cccc(Br)c2)c2cccnc21` [Example 7, 1-[(3-bromophenyl)sulfonyl]-3-[2-(dimethylamino)ethyl]-1,3-dihydro-2H-imidazo[4,5-b]pyridin-2-one] had a Ki of 23 nM.
For `NCCn1c(=O)n(S(=O)(=O)c2ccccc2)c2cccnc21` [Example 15, 3-(2-aminoethyl)-1-(phenylsulfonyl)-1,3-dihydro-2H-imidazo[4,5-b]pyridin-2-one], the Ki was found to be 44 nM.
Turning to `NCCn1c(=O)n(S(=O)(=O)c2cccc(Cl)c2Cl)c2cccnc21` [Example 24, 3-(2-aminoethyl)-1-[(2,3-dichlorophenyl)sulfonyl]-1,3-dihydro-2H-imidazo[4,5-b]pyridin-2-one], the inhibition constant (Ki) was found to be 9 nM.
The compound `NCCn1c(=O)n(S(=O)(=O)c2ccc(Cl)s2)c2cccnc21` [Example 14, 3-(2-Aminoethyl)-1-[(5-chlorothien-2-yl)sulfonyl]-1,3-dihydro-2H-imidazo[4,5-b]pyridin-2-one] returned an inhibition constant (Ki) of 18 nM.
The value for `NCCn1c(=O)n(S(=O)(=O)c2ccc(Cl)cc2)c2cccnc21` [Example 23, 3-(2-aminoethyl)-1-[(4-chlorophenyl)sulfonyl]-1,3-dihydro-2H-imidazo[4,5-b]pyridin-2-one] was 17 nM; that for `NCCn1c(=O)n(S(=O)(=O)c2ccccc2Cl)c2cccnc21` [Example 22, 3-(2-aminoethyl)-1-[(2-chlorophenyl)sulfonyl]-1,3-dihydro-2H-imidazo[4,5-b]pyridin-2-one] was 55 nM.
Compound `NCCn1c(=O)n(S(=O)(=O)c2ccc3ccccc3c2)c2cccnc21` [Example 18, 3-(2-aminoethyl)-1-(2-naphthylsulfonyl)-1,3-dihydro-2H-imidazo[4,5-b]pyridin-2-one] returned an inhibition constant (Ki) of 5 nM.
In turn, `NCCn1c(=O)n(S(=O)(=O)c2cc(Cl)sc2Cl)c2cccnc21` [Example 27, 3-(2-aminoethyl)-1-[(2,5-dichlorothien-3-yl)sulfonyl]-1,3-dihydro-2H-imidazo[4,5-b]pyridin-2-one] registered an inhibition constant Ki of 22 nM.
As to `NCCn1c(=O)n(S(=O)(=O)c2c(Cl)nc3sccn23)c2cccnc21` [Example 17, 3-(2-aminoethyl)-1-[(6-chloroimidazo[2,1-b][1,3]thiazol-5-yl)sulfonyl]-1,3-dihydro-2H-imidazo[4,5-b]pyridin-2-one], the Ki is 4 nM. Against the preceding compound, the Ki is about 5.5-fold lower.
Compound `NCCn1c(=O)n(S(=O)(=O)c2ccc(Br)s2)c2cccnc21` [Example 26, 3-(2-aminoethyl)-1-[(5-bromothien-2-yl)sulfonyl]-1,3-dihydro-2H-imidazo[4,5-b]pyridin-2-one] displayed an inhibitory constant (Ki) of 9 nM.
The value for `NCCn1c(=O)n(S(=O)(=O)c2ccccc2F)c2cccnc21` [Example 20, 3-(2-aminoethyl)-1-[(2-fluorophenyl)sulfonyl]-1,3-dihydro-2H-imidazo[4,5-b]pyridin-2-one] was 77 nM; that for `CN(C)CCn1c(=O)n(S(=O)(=O)c2cccc(F)c2)c2cccnc21` [Example 4, 3-(2-dimethylaminoethyl)-1-[(3-fluorophenyl)sulfonyl]-1,3-dihydro-2H-imidazo[4,5-b]pyridin-2-one] was 80 nM.
In the case of `COc1cccc(S(=O)(=O)n2c(=O)n(CCN)c3ncccc32)c1` [Example 19, 3-(2-aminoethyl)-1-[(3-methoxyphenyl)sulfonyl]-1,3-dihydro-2H-imidazo[4,5-b]pyridin-2-one], affinity was put at a Ki of 14 nM.
The compound `NCCn1c(=O)n(S(=O)(=O)c2cccc(Br)c2)c2cccnc21` [Example 25, 3-(2-aminoethyl)-1-[(3-bromophenyl)sulfonyl]-1,3-dihydro-2H-imidazo[4,5-b]pyridin-2-one] had an inhibition constant Ki of 12 nM. The Ki values of the last two compounds are within 1.5-fold of each other.

For the origin of these results see patent US7608717B2, “Sulfonyldihydroimidazopyridinone compounds as 5-hydroxytryptamine-6 ligands” (Wyeth, priority 2003, dated 2009).
